According to patent US20240208932A1, “ARYLAMINO DERIVATIVE ESTROGEN RECEPTOR MODULATOR AND USE THEREOF” (XIZANG HAISCO PHARMACEUTICAL CO., LTD., priority 2021, published 2024):

Key:
[1] = Pharmacokinetic test in mice; assay type: in vivo; settings: male, ICR, mouse, plasma; for Vd: read-out: Vdss
Procedure: 4. Pharmacokinetic Test in Mice
4.1 Experimental animals: male ICR mice, 20-25 g, 18 mice/compound. purchased from Chengdu Ddossy Experimental Animals Co., Ltd.
4.2 Experimental design: on the day of the test, 72 ICR mice were randomly grouped according to their body weights. the animals were fasted with water available for 12 to 14 h one day before the administration, and were fed 4 h after the administration;
(§1) Before and after the administration, 0.06 mL of blood was taken from the orbit of the animals under isoflurane anesthesia and placed in an EDTAK2 centrifuge tube. The blood was centrifuged at 5000 rpm and 4° C. for 10 min to collect plasma. The blood collection time points for the intravenous group and intragastric administration 5 group were: 0 min, 5 min, 15 min, 30 min, 1 h, 2 h, 4 h, 6 h, 8 h, and 24 h. Before analysis and detection, all samples were stored at −80° C., and a quantitative analysis of samples was performed using LC-MS/MS.

[2] = Pharmacokinetic test in rats; assay type: in vivo; settings: male, SD, rat, plasma; for Vd: read-out: Vdss
Procedure: 3. Pharmacokinetic Test in Rats
3.1 Experimental animals: male SD rats, about 220 g, 6-8 weeks old, 6 rats/compound, purchased from Chengdu Ddossy Experimental Animals Co., Ltd.
3.2 Experimental design: on the day of the test, 24 SD rats were randomly grouped according to their body weight; the animals were fasted with water available for 12 to 14 h one day before the administration, and were fed 4 h after the administration;
(DMA: dimethylacetamide; Solutol: Polyethylene glycol-15-hydroxystearate; Saline: Normal saline; MC: methylcellulose)
as §1, with “administration, 0.15 ml” for “administration, 0.06 mL”, “intravenous administration” for “intravenous”, “administration” for “administration 5”, “were: 0,” for “were: 0 min,”

[3] = target: hERG potassium ion channel (Homo sapiens (Human), UniProt Q12809); experiment: Test for hERG potassium ion channel (manual patch-clamp, CHO cells); assay type: cell-based; settings: for IC50: CHO cells stably expressing hERG, whole cell patch-clamp, read-out: IC50 on hERG potassium channel current; for inhibition at 40 µM: human, CHO cells stably expressing hERG potassium channel, hERG potassium channel current, read-out: Inhibition rate at the highest concentration tested
Excerpt: 5. Test for hERG Potassium Ion Channel
Test platform: electrophysiological manual patch-clamp system
Cell line: Chinese hamster ovary (CHO) cell lines stably expressing hERG potassium ion channel Test method: In CHO (Chinese Hamster Ovary) cells stably expressing hERG potassium channel, whole cell patch-clamp technique was used to record hERG potassium channel current at room temperature. The glass microelectrode was made of a glass electrode blank (BF150-86-10, Sutter) by a puller. The tip resistance after filling the liquid in the electrode was about 2-5 MΩ. The glass microelectrode can be connected to the patch-clamp amplifier by inserting the glass microelectrode into an amplifier probe. The clamping voltage and data recording were controlled and recorded by the pClamp 10 software through a computer. The sampling frequency was 10 kHz, and the filtering frequency was 2 kHz. After the whole cell records were obtained, the cells were clamped at −80 mV, and the step voltage that induced the hERG potassium current (I hERG) was depolarized from −80 mV to +20 mV for 2 s, then repolarized to −50 mV, and returned to −80 mV after 1 s. This voltage stimulation was given every 10 s, and the administration process was started after the hERG potassium current was confirmed to be stable (at least 1 minute). The compound was administered for at least 1 minute at each test concentration, and at least 2 cells ([…]) were tested at each concentration.
Data processing: Data analysis processing was carried out by using pClamp 10, GraphPad Prism 5 and Excel software. The inhibition degree of hERG potassium current (peak value of hERG tail current induced at −50 mV) at different compound concentrations was calculated by the following formula:
Inhibition %=[1−(I/Io)]×100% wherein, Inhibition % represents the percentage of inhibition of hERG potassium current by the compound, and I and Io represent the amplitude of hERG potassium current after and before dosing, respectively.
IC50 for the compound was calculated using GraphPad Prism 5 software by fitting according to the following equation:
Y=Bottom+(Top−Bottom)/(1+10^((LogIC50−X)*HillSlope)) wherein, X represents the Log value of the tested concentration of the test sample, Y represents the inhibition percentage at the corresponding concentration, and Bottom and Top represent the minimum and maximum inhibition percentage, respectively.

CYP1A2 = CYP1A2 (Homo sapiens (Human), UniProt P05177); experiment: CYP450 enzyme inhibition test, human liver microsomes; assay type: in vitro ADME; settings: incubation concentration 0-50/100 μM
Procedure: (§2) 6. CYP450 Enzyme Inhibition Test
(§3) The purpose of this study was to evaluate the effect of the test compound on the activity of five isoenzymes (CYP1A2, CYP2C9, CYP2C19, CYP2D6 and CYP3A4) of human liver microsomal cytochrome P450 (CYP) by using an in vitro testing system. The specific probe substrates of CYP450 isoenzymes were incubated with human liver microsomes and test compounds of different concentrations, and reduced nicotinamide adenine dinucleotide phosphate (NADPH) was added to initiate the reaction. After the completion of the reaction, the sample was treated and liquid chromatography-tandem mass spectrometry (LC-MS/MS) was used to quantitatively detect metabolites produced by specific substrates, changes in CYP enzyme activity were determined, and IC50 value was calculated to evaluate the inhibitory potential of the test compound on each CYP enzyme subtype.

CYP3A4 = CYP3A4 (Homo sapiens (Human), UniProt P08684); experiment: as above; assay type: in vitro ADME; settings: incubation concentration 0-50/100 μM, read-out: IC50 CYP3A-M
Procedure: as §2, §3

CYP2D6 = CYP2D6 (Homo sapiens (Human), UniProt P10635); experiment: as above; assay type: in vitro ADME; settings: incubation concentration 0-50/100 μM
Procedure: as §2, §3

CYP2C9 = CYP2C9 (Homo sapiens (Human), UniProt P11712); experiment: as above; assay type: in vitro ADME; settings: incubation concentration 0-50/100 μM
Procedure: as §2, §3

Chain of CYP2C9 (P11712 whole entry): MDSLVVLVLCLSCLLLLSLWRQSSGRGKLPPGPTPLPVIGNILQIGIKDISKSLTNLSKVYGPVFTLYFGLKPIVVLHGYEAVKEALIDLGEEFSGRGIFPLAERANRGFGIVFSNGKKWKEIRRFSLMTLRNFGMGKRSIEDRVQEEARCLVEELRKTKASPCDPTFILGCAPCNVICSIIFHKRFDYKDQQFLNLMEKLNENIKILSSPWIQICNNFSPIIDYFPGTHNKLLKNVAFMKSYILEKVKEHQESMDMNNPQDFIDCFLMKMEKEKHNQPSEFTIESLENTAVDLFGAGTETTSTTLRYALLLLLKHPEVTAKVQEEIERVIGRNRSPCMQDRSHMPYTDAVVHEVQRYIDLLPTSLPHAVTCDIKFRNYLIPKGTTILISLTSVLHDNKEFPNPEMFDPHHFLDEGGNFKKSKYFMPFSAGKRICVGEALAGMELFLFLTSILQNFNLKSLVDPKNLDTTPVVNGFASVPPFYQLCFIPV
Chain of CYP2D6 (P10635 whole entry): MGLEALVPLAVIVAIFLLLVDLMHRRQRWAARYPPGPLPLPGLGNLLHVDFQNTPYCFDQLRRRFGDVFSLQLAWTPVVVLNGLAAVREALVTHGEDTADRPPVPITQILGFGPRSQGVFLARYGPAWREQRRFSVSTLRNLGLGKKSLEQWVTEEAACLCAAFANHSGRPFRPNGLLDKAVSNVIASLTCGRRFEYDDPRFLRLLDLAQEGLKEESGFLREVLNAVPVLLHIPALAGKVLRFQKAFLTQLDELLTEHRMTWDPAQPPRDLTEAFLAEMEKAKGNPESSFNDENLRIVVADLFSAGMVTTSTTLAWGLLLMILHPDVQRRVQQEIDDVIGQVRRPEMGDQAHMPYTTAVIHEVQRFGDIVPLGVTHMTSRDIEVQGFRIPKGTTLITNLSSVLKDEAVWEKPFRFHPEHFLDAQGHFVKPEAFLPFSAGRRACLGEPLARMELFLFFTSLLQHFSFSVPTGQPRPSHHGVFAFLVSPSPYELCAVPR
Chain of hERG potassium ion channel (Q12809 whole entry): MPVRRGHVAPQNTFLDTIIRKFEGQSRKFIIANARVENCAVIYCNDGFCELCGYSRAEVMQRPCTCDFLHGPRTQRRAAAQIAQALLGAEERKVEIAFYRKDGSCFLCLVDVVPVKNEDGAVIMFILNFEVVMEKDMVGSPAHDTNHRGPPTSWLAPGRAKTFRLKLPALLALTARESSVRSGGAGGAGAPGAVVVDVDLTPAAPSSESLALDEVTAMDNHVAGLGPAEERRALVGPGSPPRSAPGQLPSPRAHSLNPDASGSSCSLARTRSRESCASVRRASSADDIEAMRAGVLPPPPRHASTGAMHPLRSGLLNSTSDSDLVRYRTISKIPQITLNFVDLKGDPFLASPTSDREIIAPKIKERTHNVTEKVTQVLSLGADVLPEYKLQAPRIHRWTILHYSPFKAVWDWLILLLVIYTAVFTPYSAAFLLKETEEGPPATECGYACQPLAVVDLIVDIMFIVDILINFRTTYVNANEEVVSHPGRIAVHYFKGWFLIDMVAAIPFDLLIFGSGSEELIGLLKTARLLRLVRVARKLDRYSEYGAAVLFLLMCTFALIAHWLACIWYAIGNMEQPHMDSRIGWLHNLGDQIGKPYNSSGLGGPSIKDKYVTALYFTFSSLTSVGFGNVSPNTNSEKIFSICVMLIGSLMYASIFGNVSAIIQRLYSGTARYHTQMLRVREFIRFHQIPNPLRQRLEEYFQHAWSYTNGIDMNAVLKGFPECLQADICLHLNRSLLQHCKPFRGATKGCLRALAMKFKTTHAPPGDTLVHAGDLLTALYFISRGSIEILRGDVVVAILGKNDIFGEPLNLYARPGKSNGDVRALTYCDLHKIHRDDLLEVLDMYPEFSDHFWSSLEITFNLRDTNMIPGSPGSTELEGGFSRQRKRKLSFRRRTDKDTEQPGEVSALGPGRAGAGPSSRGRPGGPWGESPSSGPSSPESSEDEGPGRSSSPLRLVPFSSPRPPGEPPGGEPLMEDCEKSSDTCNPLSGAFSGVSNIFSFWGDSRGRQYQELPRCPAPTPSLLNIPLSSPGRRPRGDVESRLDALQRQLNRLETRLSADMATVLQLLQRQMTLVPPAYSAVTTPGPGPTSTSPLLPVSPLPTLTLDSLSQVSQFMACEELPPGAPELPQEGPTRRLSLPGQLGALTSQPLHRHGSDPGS
Chain of CYP3A4 (P08684 whole entry): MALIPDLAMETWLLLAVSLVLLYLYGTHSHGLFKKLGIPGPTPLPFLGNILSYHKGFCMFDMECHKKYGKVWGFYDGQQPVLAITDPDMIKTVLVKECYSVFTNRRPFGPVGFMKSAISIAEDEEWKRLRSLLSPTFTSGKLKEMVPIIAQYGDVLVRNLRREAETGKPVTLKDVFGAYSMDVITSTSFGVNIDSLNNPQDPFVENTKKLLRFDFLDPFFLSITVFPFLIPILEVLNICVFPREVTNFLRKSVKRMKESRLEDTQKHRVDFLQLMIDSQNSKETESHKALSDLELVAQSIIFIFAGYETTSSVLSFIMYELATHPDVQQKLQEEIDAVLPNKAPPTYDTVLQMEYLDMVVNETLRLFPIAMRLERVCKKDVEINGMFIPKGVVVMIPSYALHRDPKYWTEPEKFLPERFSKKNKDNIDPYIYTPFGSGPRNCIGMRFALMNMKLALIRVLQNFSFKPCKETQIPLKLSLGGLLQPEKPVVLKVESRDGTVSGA
Chain of CYP1A2 (P05177 whole entry): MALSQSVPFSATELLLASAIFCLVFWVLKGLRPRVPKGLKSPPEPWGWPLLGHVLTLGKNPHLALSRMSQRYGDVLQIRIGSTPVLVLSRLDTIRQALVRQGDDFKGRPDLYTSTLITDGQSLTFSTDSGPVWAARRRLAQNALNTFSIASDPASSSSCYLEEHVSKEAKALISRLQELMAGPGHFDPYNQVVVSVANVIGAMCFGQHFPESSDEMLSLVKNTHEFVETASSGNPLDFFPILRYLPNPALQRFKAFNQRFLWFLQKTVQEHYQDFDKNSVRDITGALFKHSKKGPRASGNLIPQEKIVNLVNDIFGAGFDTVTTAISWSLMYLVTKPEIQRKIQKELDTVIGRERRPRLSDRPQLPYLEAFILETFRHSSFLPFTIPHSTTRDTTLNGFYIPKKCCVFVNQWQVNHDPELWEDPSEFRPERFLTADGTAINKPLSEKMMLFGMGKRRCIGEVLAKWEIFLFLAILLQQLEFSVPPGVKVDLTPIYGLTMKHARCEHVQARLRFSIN

AUC(0-t) ([1]; iv, i.v. (5 mg/kg)) | clearance ([1]; iv, i.v. (5 mg/kg)) | Vd ([1]; iv, i.v. (5 mg/kg)) | bioavailability ([1]; po, i.g. (10 mg/kg)) | AUC(0-t) ([1]; po, i.g. (10 mg/kg)) | AUC(0-t) ([2]; iv, i.v. (2.5 mg/kg)) | clearance ([2]; iv, i.v. (2.5 mg/kg)) | Vd ([2]; iv, i.v. (2.5 mg/kg)) | bioavailability ([2]; po, i.g. (10 mg/kg)) | AUC(0-t) ([2]; po, i.g. (10 mg/kg)) | IC50 (CYP1A2) | IC50 (CYP3A4) | IC50 (CYP2D6) | IC50 (CYP2C9) | SMILES | IC50 [3] | inhibition at 40 µM [3]
3360 ng·h/mL | 16.3 mL/min/kg | 21.6 L/kg | 65.6% | 4410 ng·h/mL | 853 ± 48 ng·h/mL | 39.2 ± 2.8 mL/min/kg | 31.4 ± 5.9 L/kg | 57.6 ± 14% | 1970 ± 469 ng·h/mL | > 100 µM | 18.9 µM | 23.4 µM | 19.5 µM | C[C@@H]1Cc2c([nH]c3cc(F)ccc23)[C@@H](c2c(F)cc(N[C@H]3CCN(CCCF)C3)cc2F)N1CC(F)(F)F [Compound 32, (S)—N-(3,5-difluoro-4-((1R,3R)-7-fluoro-3-methyl-2-(2,2,2-trifluoroethyl)-2,3,4,9-tetrahydro-1H-pyrido[3,4-b]indol-1-yl)phenyl)-1-(3-fluoropropyl)pyrrolidin-3-amine] | 4.14 µM | 100.2 ± 0.74%
10200 ng·h/mL | 8.21 mL/min/kg | 16.6 L/kg | 50.2% | 10200 ng·h/mL | 1570 ± 143 ng·h/mL | 20.8 ± 2 mL/min/kg | 18.1 ± 2.1 L/kg | 51 ± 2.1% | 3200 ± 129 ng·h/mL | 41.6 µM | > 12.7 µM | 21.5 µM | > 42.8 µM | C#Cc1ccc2c3c([nH]c2c1)[C@@H](c1c(F)cc(N[C@H]2CCN(CCCF)C2)cc1F)N(CC(F)(F)F)[C@H](C)C3 [Compound 43, (S)—N-(4-((1R,3R)-7-ethynyl-3-methyl-2-(2,2,2-trifluoroethyl)-2,3,4,9-tetrahydro-1H-pyrido[3,4-b]indol-1-yl)-3,5-difluorophenyl)-1-(3-fluoropropyl)pyrrolidin-3-amine] | 12.3 µM | 98.28 ± 0.93%
3810 ng·h/mL | 15 mL/min/kg | 18.2 L/kg | 74.3% | 5650 ng·h/mL | 2070 ± 294 ng·h/mL | 16.9 ± 4 mL/min/kg | 12.2 ± 1.5 L/kg | 55 ± 13% | 4560 ± 1040 ng·h/mL | > 100 µM | 15.7 µM | 34.1 µM | 20 µM | C[C@@H]1Cc2c([nH]c3ccc(F)cc23)[C@@H](c2c(F)cc(N[C@H]3CCN(CCCF)C3)cc2F)N1CC(F)(F)F [Compound 18, (S)—N-(3,5-difluoro-4-((1R,3R)-6-fluoro-3-methyl-2-(2,2,2-trifluoroethyl)-2,3,4,9-tetrahydro-1H-pyrido[3,4-b]indol-1-yl)phenyl)-1-(3-fluoropropyl)pyrrolidin-3-amine] | 2.82 µM | 100 ± 1.79%
